Laboratory results published in US7235674B2, “Substituted coumarins and quinolines and analogs as activators of caspases and inducers of apoptosis and the use thereof” (Cytovia, Inc., priority 2001, dated 2007).

Key:
[1] = test system: Human breast cancer cell line T-47D; test: Caspase cascade activation assay (N-(Ac-DEVD)-N'-ethoxycarbonyl-R110 fluorogenic substrate) in T-47D cells; type: cell-based; details: for EC50 / EC50 (nM) T-47D: caspase cascade activation potency; for EC50 / Caspase activity (Ratio) T-47D / EC50 (nM) T-47D: T-47D cells, 24 h incubation; for Caspase activity (Ratio) T-47D: ratio of net RFU of test compound to control, 3 h substrate reading; for EC50 (nM) T47D / Max efficacy T47D: commercial fused-pyridine compounds, T47D cells
Description: (§1) Human breast cancer cell lines T-47D and ZR-75-1 were grown according to media component mixtures designated by American Type Culture Collection +10% FCS (Invitrogen Corporation), in a 5% CO2 −95% humidity incubator at 37° C. T-47D and ZR-75-1 cells were maintained at a cell density between 30 and 80% confluency at a cell density of 0.1 to 0.6×10^6 cells/mL. Cells were harvested at 600×g and resuspended at 0.65×10^6 cells/mL into appropriate media +10% FCS. An aliquot of 45 μl of cells was added to a well of a 96-well microtiter plate containing 5 μl of a 10% DMSO in RPMI-1640 media solution containing 0.16 to 10 μM of 3-cyano-7-methoxy-4-(3-bromo-4,5-dimethoxyphenyl)-2-oxo-2H-chromene (Example 1) or other test compound (0.016 to 1 μM final). An aliquot of 45 μl of cells was added to a well of a 96-well microtiter plate containing 5 μl of a 10% DMSO in RPMI-1640 media solution without test compound as the control sample. The samples were mixed by agitation and then incubated at 37° C. for 24 h in a 5% CO2 −95% humidity incubator. After incubation, the samples were removed from the incubator and 50 μl of a solution containing 20 μM of N-(Ac-DEVD)-N′-ethoxycarbonyl-R110 fluorogenic substrate (SEQ ID NO:1) (Cytovia, Inc.; WO99/18856), 20% sucrose (Sigma), 20 mM DTT (Sigma), 200 mM NaCl (Sigma), 40 mM Na PIPES buffer pH 7.2 (Sigma), and 500 μg/ml lysolecithin (Calbiochem) was added. The samples were mixed by agitation and incubated at room temperature. Using a fluorescent plate reader (Model 1420 Wallac Instruments), an initial reading (T=0) was made approximately 1-2 min after addition of the substrate solution, employing excitation at 485 nm and emission at 530 nm, to determine the background fluorescence of the control sample. After the 3 h incubation, the samples were read for fluorescence as above (T=3 h).
(§2) The Relative Fluorescence Unit values (RFU) were used to calculate the sample readings as follows: RFU(T=3 h)−Control RFU(T=0)=Net RFU(T=3 h)
(§3) The activity of caspase cascade activation was determined by the ratio of the net RFU value for 3-cyano-7-methoxy-4-(3-bromo-4,5-dimethoxy-phenyl)-2-oxo-2H-chromene, or other test compound, to that of control samples. The EC50 (nM) was determined by a sigmoidal dose-response calculation (Prism 2.0, GraphPad Software Inc.).

[2] = test system: Human breast cancer cell line ZR-75-1; test: Caspase cascade activation assay (N-(Ac-DEVD)-N'-ethoxycarbonyl-R110 fluorogenic substrate) in ZR-75-1 cells; type: cell-based; details: for Caspase activity (Ratio) ZR-75-1: ratio of net RFU of test compound to control, 3 h substrate reading; for maximal fold induction: ZR-75-1, 24 h, read-out: Max efficacy ZR751
Description: as §1, §2, §3

[3] = caspase cascade activation potency, ZR-75-1 cells, 24 h incubation
[4] = Homo sapiens, caspase cascade activation potency, ZR-75-1 cells, 24 h incubation
[5] = Homo sapiens, commercial fused-pyridine compounds, ZR751 cells
[6] = Homo sapiens, ZR-75-1, commercial fused-pyridine compounds, ZR751 cells

SMILES | Caspase activity (Ratio) T-47D [1] | Caspase activity (Ratio) ZR-75-1 ([2]; ZR-75-1 cells, 24 h incubation) | EC50 [2, 4] | EC50 ([1]; Homo sapiens, T47D) | other results
N#Cc1c(-c2ccccc2)c2ccccc2[nH]c1=O [Example 6, 3-Cyano-4-phenyl-quinolin-1H-2-one] | 9.1 | 10.6 | – | – | EC50 [1]: 4800 nM; EC50 [2, 3]: 882 nM
COc1cc(-c2cc3c(c4c2=C(C#N)C(=O)O4)OC(C)(C)CC=3)cc(Br)c1OC [Example 20, 4-(3-Bromo-4,5-dimethoxyphenyl)-3-cyano-7,8-dihydro-8,8-dimethyl-2-oxo-2H-furo[3,2-h]chromene] | 1.6 | 3.1 | 1000 nM | – | EC50 (nM) T-47D [1]: Inactive
COc1cccc(C2=c3ccc4c(c3OC(=O)C2C#N)C=CN=4)c1 (centres unmarked) [Example 5, 3-Cyano-4-(3-methoxyphenyl)-2-oxo-2H-pyrrolo[2,3-h]chromene] | 2.0 | 10.4 | 111 nM | 200 nM | –
N#Cc1c(N)nc2[nH]c(=S)[nH]c(=O)c2c1-c1ccc(Cl)cc1 [compound 51] | – | – | – | – | EC50 (nM) T47D [1]: Inactive; Max efficacy T47D [1]: Inactive; maximal fold induction [2, 5]: 2.8; EC50 [2, 6]: 5380 nM
COc1cccc(-c2c(C#N)c(=N)sc3cc(OC)ccc23)c1 [Example 30, 2-Imino-3-cyano-7-methoxy-4-(3′-methoxy-phenyl)-2H-thiochromene] | Inactive | Inactive | – | – | EC50 (nM) T-47D [1]: Inactive; EC50 (nM) ZR-75-1 [2, 3]: Inactive
CNc1ccc2c(-c3cc(Br)c(OC)c(OC)c3)c(C#N)c(=O)oc2c1 [Example 25, 4-(3-Bromo-4,5-dimethoxy-phenyl)-3-cyano-7-methylamino-2-oxo-2H-chromene] | 4.9 | 6.1 | 356 nM | 1090 nM | –
N#Cc1c(-c2ccccc2)c2ccccc2oc1=O [Example 4, 3-Cyano-4-phenyl-2-oxo-2H-chromene] | Inactive | Inactive | – | – | EC50 (nM) T-47D [1]: Inactive; EC50 (nM) ZR-75-1 [2, 3]: Inactive
Cn1ccc2c3oc(=O)c(C#N)c(-c4cccc([N+](=O)[O-])c4)c3ccc21 [Example 38, 3-Cyano-7-methyl-4-(3-nitro-phenyl)-2-oxo-2H-pyrrolo[2,3-h]chromene] | 1.8 | 5.0 | 22 nM | > 100 nM | –
COc1cc(OC)cc(C2=c3ccc4c(c3OC(=O)C2C#N)C=CN=4)c1 (centres unmarked) [Example 16, 4-(3,5-Dimethoxyphenyl)-3-cyano-2-oxo-2H-pyrrolo[2,3-h]chromene] | 3.1 | 3.6 | 174 nM | 106 nM | –
COc1cc(-c2c(C#N)c(=N)oc3cc(N(C)C)ccc23)cc(Br)c1OC [Example 31, 2-Imino-3-cyano-7-dimethylamino-4-(3-bromo-4,5-dimethoxyphenyl)-2H-chromene] | – | – | – | 2500 nM | –
COc1ccc2c(-c3cc(Br)c(OC)c(OC)c3)c(C#N)c(=O)[nH]c2c1 [Example 9, 4-(3-Bromo-4,5-dimethoxy-phenyl)-3-cyano-7-methoxy-quinolin-1H-2-one] | 4.4 | 7.4 | – | – | EC50 [1]: 4410 nM; EC50 [2, 3]: 2050 nM
COc1ccc(-c2c(C#N)c(N)nc3c2CCc2ccccc2-3)cc1OC [compound 45] | – | – | – | – | EC50 (nM) T47D [1]: Inactive; Max efficacy T47D [1]: Inactive; maximal fold induction [2, 5]: 7; EC50 [2, 6]: 571 nM
COc1cc(-c2c(C#N)c(=O)oc3cc(Cl)ccc23)cc(Br)c1OC [Example 28, 4-(3-Bromo-4,5-dimethoxy-phenyl)-7-chloro-3-cyano-2-oxo-2H-chromene] | 2.2 | – | – | 2960 nM | –
